This note sets out measurements from US10004232B2 (priority 2011, dated 2018).

Structures are written as SMILES.

In series [1] the test system is Phytophthora infestans. The series is classed as in vivo. The note with it: young tomato plants, protective spray, active ingredient concentration 100 ppm, evaluation 7 days after inoculation.
The test system of series [2] is Plasmopara viticola. In words: Plasmopara test (grapevine) / protective. The note with it: young grapevine plants, protective spray, active ingredient concentration 10 ppm, evaluation 6 days after inoculation. The series is classed as in vivo. The method, then:
Plasmopara Test (Grapevine)/Protective
Solvent: 24.5 parts by weight of acetone
• 24.5 parts by weight of dimethylacetamide Emulsifier: 1 part by weight of alkylaryl polyglycol ether
An appropriate preparation of active ingredient is prepared by mixing 1 part by weight of active ingredient with the specified amounts of solvent and emulsifier, and diluting the concentrate with water to the desired concentration.
To test for protective activity, young plants are sprayed with the preparation of active ingredient at the specified application rate. After the spray coating has dried on, the plants are inoculated with an aqueous spore suspension of Plasmopara viticola and then spend 1 day in an incubation cabinet at about 20° C. and 100% relative atmospheric humidity. The plants are subsequently placed for 4 days in a greenhouse at about 21° C. and about 90% atmospheric humidity. The plants are then moistened and placed in an incubation cabin for 1 day.
Evaluation takes place 6 days after inoculation. Here, 0% denotes an efficacy which corresponds to that of the control, whereas an efficacy of 100% means that no infestation is observed.

The nature of series [3]: logP determination by HPLC on reversed-phase columns (C 18), EEC Directive 79/831 Annex V.A8. Particulars: for chromatographic logP: reversed-phase C18 HPLC column. It counts as physicochemical. An excerpt: Calibration takes place using unbranched alkan-2-ones (having 3 to 16 carbon atoms) whose log P values are known (log P values determined on the basis of the retention times, by linear interpolation between two successive alkanones).

The mark [4] stands for this setting: [a] LC-MS in the acidic range, pH 2.7, 0.1% aqueous formic acid and acetonitrile.
The mark [5] stands for this setting: [b] LC-MS in the neutral range, pH 7.8, 0.001 molar aqueous ammonium hydrogencarbonate and acetonitrile.

In the case of `CS(=O)(=O)Nc1cc(F)c(C2CC(c3csc(C4CCN(C(=O)Cn5nc(C(F)F)cc5C(F)F)CC4)n3)=NO2)c(F)c1` (stereo not drawn) [Example I-5, N-(4-{3-[2-(1-{[3,5-Bis(difluoromethyl)-1H-pyrazol-1-yl]acetyl}piperidin-4-yl)-1,3-thiazol-4-yl]-4,5-dihydro-1,2-oxazol-5-yl}-3,5-difluorophenyl)methanesulphonamide], the Eff. % in series [1] was 95%; in series [2], 96%. The same compound displayed a chromatographic logP in series [3] (setting [4]) of 2.63.

Take `C=C(Cl)COc1ccc(F)c(F)c1C1CC(c2csc(C3CCN(C(=O)Cn4nc(C(F)F)cc4C(F)F)CC3)n2)=NO1` (racemic) [Example I-7]: the Eff. % in series [2] is on record as 100%. Further, the log partition coefficient (LogP) in series [3] (setting [4]) amounted to 3.68; in series [3] (setting [5]), 3.69.

As to `C=CCOc1cc(F)c(C2CC(c3csc(C4CCN(C(=O)Cn5nc(C(F)F)cc5C(F)F)CC4)n3)=NO2)c(F)c1` (racemic) [Example I-11], the LogP in series [3] (setting [4]) was 3.7^[a].

Regarding `O=C(Oc1cc(F)c(C2CC(c3csc(C4CCN(C(=O)Cn5nc(C(F)F)cc5C(F)F)CC4)n3)=NO2)c(F)c1)C1CC1` (racemic) [Example I-9], the LogP in series [3] (setting [4]) is 3.53^[a].

Take `C#CCOc1c(F)ccc(F)c1C1CC(c2csc(C3CCN(C(=O)Cn4nc(C(F)F)cc4C(F)F)CC3)n2)=NO1` (racemic) [Example I-12]: the values for the LogP in series [3] (setting [4]) and in series [3] (setting [5]) were 3.31 and 3.3, respectively.

On to `C#CCOc1cc(F)c(C2CC(c3csc(C4CCN(C(=O)Cn5nc(C(F)F)cc5C(F)F)CC4)n3)=NO2)c(F)c1` (racemic) [Example I-3], for which the Eff. % in series [1] was 98%; in series [2] it was 100%. In addition, the LogP in series [3] (setting [4]) came to 3.3; in series [3] (setting [5]) it was 3.26.

As to `C=CCOc1ccc(F)c(C2CC(c3csc(C4CCN(C(=O)Cn5nc(C(F)F)cc5C(F)F)CC4)n3)=NO2)c1F` (stereo not drawn) [Example I-4, 1-[4-(4-{5-[3-(Allyloxy)-2,6-difluorophenyl]-4,5-dihydro-1,2-oxazol-3-yl}-1,3-thiazol-2-yl)piperidin-1-yl]-2-[3,5-bis(difluoromethyl)-1H-pyrazol-1-yl]ethanone], the values for the Eff. % in series [1] and in series [2] were 95% and 100%, respectively. Besides, the figures for the chromatographic logP in series [3] (setting [4]) and in series [3] (setting [5]) were 3.59 and 3.51, respectively.

With `C=CCOc1cc(Cl)cc(Cl)c1C1CC(c2csc(C3CCN(C(=O)Cn4nc(C(F)F)cc4C(F)F)CC3)n2)=NO1` (racemic) [Example I-18], the Eff. % turned out to be 95% in series [1] and 96% in series [2]. Further, the figures for the LogP in series [3] (setting [4]) and in series [3] (setting [5]) were 4.29 and 4.2, respectively.

In series [1], `C#CCOc1cc(C)c(C)cc1C1(C)CC(c2csc(C3CCN(C(=O)Cn4nc(C(F)F)cc4C(F)F)CC3)n2)=NO1` (stereo not drawn) [Example I-1, 2-[3,5-Bis(difluoromethyl)-1H-pyrazol-1-yl]-1-[4-(4-{5-[4,5-dimethyl-2-(prop-2-yn-1-yloxy)phenyl]-5-methyl-4,5-dihydro-1,2-oxazol-3-yl}-1,3-thiazol-2-yl)piperidin-1-yl]ethanone] displayed an Eff. % of 98%. Besides, the chromatographic logP in series [3] (setting [4]) stood at 4.1; in series [3] (setting [5]) it was 4.04.

With `O=C(Cn1nc(C(F)F)cc1C(F)F)N1CCC(c2nc(C3=NOC(c4c(F)cc(F)cc4OCC4CC4)C3)cs2)CC1` (racemic) [Example I-15], the LogP in series [3] (setting [4]) amounted to 3.81; in series [3] (setting [5]), 3.76.

For `C=CCOc1cc(F)cc(F)c1C1CC(c2csc(C3CCN(C(=O)Cn4nc(C(F)F)cc4C(F)F)CC3)n2)=NO1` (racemic) [Example I-20], the Eff. % in series [2] stood at 100%. For the same compound, the LogP in series [3] (setting [4]) worked out at 3.67; in series [3] (setting [5]) it was 3.58.

As to `O=C(Cn1nc(C(F)F)cc1C(F)F)N1CCC(c2nc(C3=NOC(c4c(OC/C=C\Cl)ccc(F)c4F)C3)cs2)CC1` (racemic) [Example I-6], the results for the LogP in series [3] (setting [4]) and in series [3] (setting [5]) were 3.79 and 3.71, respectively.

Turning to `O=C(Oc1cc(F)cc(F)c1C1CC(c2csc(C3CCN(C(=O)Cn4nc(C(F)F)cc4C(F)F)CC3)n2)=NO1)C1CC1` (racemic) [Example I-16], the LogP was 3.5 in series [3] (setting [4]) and 3.42 in series [3] (setting [5]).

For the compound `O=Cc1cc(F)c(C2CC(c3csc(C4CCN(C(=O)Cn5nc(C(F)F)cc5C(F)F)CC4)n3)=NO2)c(F)c1` (racemic) [Example I-14], the LogP in series [3] (setting [4]) worked out at 2.93; in series [3] (setting [5]), 2.87.

On to `C#CCOc1cc(Cl)cc(Cl)c1C1CC(c2csc(C3CCN(C(=O)Cn4nc(C(F)F)cc4C(F)F)CC3)n2)=NO1` (racemic) [Example I-21], for which the Eff. % in series [1] stood at 95%; in series [2], 100%. Further, the LogP was 3.94 in series [3] (setting [4]) and 3.85 in series [3] (setting [5]).

As for `C#CCOc1cc(F)cc(F)c1C1CC(c2csc(C3CCN(C(=O)Cn4nc(C(F)F)cc4C(F)F)CC3)n2)=NO1` (racemic) [Example I-13], the Eff. % in series [2] was 100%. Moreover, the LogP in series [3] (setting [4]) is 3.32^[a].

For the compound `C#CCOc1c(F)cc(F)cc1C1CC(c2csc(C3CCN(C(=O)Cn4nc(C(F)F)cc4C(F)F)CC3)n2)=NO1` (racemic) [Example I-10], the LogP in series [3] (setting [4]) was 3.58; in series [3] (setting [5]), 3.51.

With `C#CCOc1ccc(F)c(F)c1C1CC(c2csc(C3CCN(C(=O)Cn4nc(C(F)F)cc4C(F)F)CC3)n2)=NO1` (racemic) [Example I-8], the Eff. % in series [2] was found to be 100%. The log partition coefficient (LogP) in series [3] (setting [4]) is given as 3.3; in series [3] (setting [5]), 3.27.

For the compound `C#CCOc1ccc(F)c(C2CC(c3csc(C4CCN(C(=O)Cn5nc(C(F)F)cc5C(F)F)CC4)n3)=NO2)c1F` (stereo not drawn) [Example I-2, 2-[3,5-Bis(difluoromethyl)-1H-pyrazol-1-yl]-1-[4-(4-{5-[2,6-difluoro-3-(prop-2-yn-1-yloxy)phenyl]-4,5-dihydro-1,2-oxazol-3-yl}-1,3-thiazol-2-yl)piperidin-1-yl]ethanone], the Eff. % came out at 94% in series [1] and 100% in series [2]. Moreover, the chromatographic logP was 3.26 in series [3] (setting [4]) and 3.18 in series [3] (setting [5]).

In series [2], `C=C(Cl)COc1cc(F)cc(F)c1C1CC(c2csc(C3CCN(C(=O)Cn4nc(C(F)F)cc4C(F)F)CC3)n2)=NO1` (racemic) [Example I-19] showed an Eff. % of 100%. For the same compound, the values for the LogP in series [3] (setting [4]) and in series [3] (setting [5]) were 3.79 and 3.7, respectively.

`C=CCOc1ccc(F)c(F)c1C1CC(c2csc(C3CCN(C(=O)Cn4nc(C(F)F)cc4C(F)F)CC3)n2)=NO1` (racemic) [Example I-17] displayed an Eff. % in series [2] of 100%. For the same compound, the LogP in series [3] (setting [4]) is 3.53; in series [3] (setting [5]), 3.56.
